The values that follow come from publication PMC12567500, “Activity-Based Profiling of Papain-like Cysteine Proteases During Late-Stage Leaf Senescence in Barley” (Plants, 2025).

The test system of assay [1] is PLCPs (cathepsin B-like activity, Fr. No 35–36 of barley leaf extract). The assay can be described thus: Inhibition of Z-RR-AMC cleavage, pooled ion-exchange fractions Nos. 35–36. Conditions: for IC50: substrate Z-RR-AMC 25 µM, Fr. No 35–36, senescing leaves six weeks after anthesis, pH 5.5, read-out: Effect/IC50. The class given is biochemical, barley (Hordeum vulgare L.). How it is done: (§1) Soluble proteins from barley leaves were extracted by homogenizing 10 g of leaf powder in 200 mL of ice-cold 50 mM Tris-HCl buffer (pH 7.4). Homogenates were filtered through one layer of Miracloth (Calbiochem, San Diego, CA, USA), centrifuged at 20,000× g for 20 min at 4 °C, and the supernatants were then filtered through a 0.45 μm filter (Avantor, Radnor, PA, USA). PLCPs were separated using anion-exchange chromatography on a DEAE-Sepharose CL-6B column (volume 6 mL) equilibrated with 0.05 M Tris-HCl buffer (pH 7.4). The column was washed with equilibration buffer, and bound material was eluted with a NaCl gradient (0.0–1.0 M). Collected fractions (1 mL each) were kept in an ice bath and used for measurements of peptidase activity and protein content. Fractions with active cysteine proteases were pooled. To reduce the NaCl concentration and exchange the buffer to 0.1 M Na-citrate (pH 5.5), three sequential filtration steps using 10 kDa ultrafiltration 15 mL units (Merck Millipore Ltd., Carrigtwohill, County Cork, Ireland) were utilized, and the samples were incubated with gentle shaking with 10 µM DCG-04 in the presence of 2 mM DTT for 3 h at 37 °C. […] The intensity of DCG-04-labeled barley cysteine proteases was determined in our previous experiments using streptavidin-horseradish peroxidase. After the incubation, proteins were rapidly precipitated using 80% acetone under inclusion of 100 mM NaCl.
(§2) Fluorogenic substrates Z-FR-AMC to determine cathepsin B- and L-like activity, and Z-RR-AMC to determine cathepsin B-like activity, were used. These substrates show fluorescence when AMC is released as a consequence of the hydrolysis of the Arg-AMC bond. The emitted fluorescence was detected with a SpectraMax M2 microplate reader (Molecular Devices, San Jose, CA, USA) with λex = 360 nm and λem = 460 nm. Before use, the substrates were dissolved in DMSO at 10 mM and stored at −20 °C. The measurements were made in 96-well black microplates (PerkinElmer Inc., Waltham, MA, USA), and each well contained a 100 μL final volume of 0.1 M Na-citrate buffer (pH 5.5) with DTT (2 mM), an aliquot of extract or chromatographic fraction, and fluorogenic substrate (25 μM). The reaction was initiated by the addition of the substrate. The final concentration of DMSO in microplate wells was 1% in all assays. The assays were conducted at room temperature, and relative fluorescence readings were recorded over a period of 10 min.
(§3) For the inhibition assays, an inhibitor (1 µL of stock solution of E-64 or bestatin in DMSO, or stock solution of 1,10-phenanthroline in ethanol) at different concentrations was added to the reaction mixture. […]

For assay [2], the target named is R-AMC cleaving aminopeptidase activity (Fr. No 26–27 of barley leaf extract). The assay is described as follows: Inhibition of R-AMC cleaving aminopeptidase activity, pooled ion-exchange fractions Nos. 26–27. The following applies: for IC50: substrate R-AMC 25 µM, Fr. No 26–27, senescing leaves six weeks after anthesis, pH 5.5, read-out: Effect/IC50; for Inhibition of R-AMC cleaving aminopeptidase activity (in words): substrate R-AMC, earlier eluting fractions. The class given is biochemical, barley (Hordeum vulgare L.).

The test system of assay [3] is aleurain (a cysteine aminopeptidase). The arrangement: method as in PMID 12354950. Conditions: cited from earlier work.
In assay [4] the test system is PLCPs (cathepsin B- and L-like activity, Fr. No 35–36 of barley leaf extract). The assay is described as follows: Inhibition of Z-FR-AMC cleavage, pooled ion-exchange fractions Nos. 35–36. The class given is biochemical, barley (Hordeum vulgare L.). Conditions: for IC50: substrate Z-FR-AMC 25 µM, Fr. No 35–36, senescing leaves six weeks after anthesis, pH 5.5, read-out: Effect/IC50. Here is the method:
as §1, §2, §3

Another assay relates to PLCPs from maize leaves. More on the design: method as in PMID 31114592. The following applies: ion-exchange chromatography; cited from earlier work.
For assay [5], the system named is PLCPs (pooled fractions with active cysteine proteases). The assay is described as follows: DCG-04 labeling of pooled active fractions, remaining PLCP activity checked with Z-FR-AMC and Z-RR-AMC. The class given is biochemical, barley (Hordeum vulgare L.). Conditions: 10 µM DCG-04, 2 mM DTT, 3 h at 37 °C, 0.1 M Na-citrate pH 5.5. Here is the method: as §1, with “After the incubation, proteins were rapidly precipitated using 80% acetone under inclusion of 100 mM NaCl.” left out

In the case of `CC(C)C[C@H](NC(=O)[C@H]1O[C@@H]1C(=O)O)C(=O)NCCCCN=C(N)N` (relative stereo) [E-64, trans-epoxysuccinyl-L-leucylamido-(4-guanidino)butane], the values for the IC50 in assay [1], in assay [2] and in assay [4] were 0.0091 ± 0.0022 µM, above 25 µM and 0.0153 ± 0.0041 µM, respectively. The “Inhibition of the activity of the peak fractions (in words)” value in assay [1] (substrate Z-RR-AMC, peak fractions of DEAE-Sepharose) is “completely inhibited”; in assay [4] (substrate Z-FR-AMC, peak fractions of DEAE-Sepharose), “completely inhibited”. In assay [3], the “Inhibition of aleurain activity (in words)” value is on record as “inhibited”. In addition, the “Sensitivity of the single Z-FR-AMC cleavage activity peak to inhibition (in words)” value in the assay on PLCPs from maize leaves was “sensitive”.
Take `c1cnc2c(c1)ccc1cccnc12` [1,10-Phenanthroline, 1,10-phenanthroline]: the IC50 in assay [1] is above 5000 µM; in assay [2], 68.5 ± 12.2 µM; in assay [4], above 5000 µM. In assay [2], the “Inhibition of R-AMC cleaving aminopeptidase activity (in words)” value is “inhibited”.
With `CC(C)C[C@H](NC(=O)[C@@H](O)[C@H](N)Cc1ccccc1)C(=O)O` [Bestatin, bestatin], the IC50 was above 1000 µM in assay [1], 247 ± 38 µM in assay [2] and above 1000 µM in assay [4]. For the same compound, the “Inhibition of R-AMC cleaving aminopeptidase activity (in words)” value in assay [2] is “inhibited”.
In the case of `CCOC(=O)[C@H]1O[C@@H]1C(=O)N[C@@H](CC(C)C)C(=O)N[C@@H](Cc1ccc(O)cc1)C(=O)NCCCCCC(=O)N[C@@H](CCCCNC(=O)CCCC[C@@H]1SC[C@@H]2NC(=O)N[C@@H]21)C(N)=O` [DCG-04], in assay [5], the “Remaining PLCP activity after incubation with probe” value is “No remaining PLCP activity”.
